Legend:
[1] = tested on: arterial papillary muscle; assay: Positive inotropic effect, blood-perfused arterial papillary muscle; set-up: species or system dog; conditions: into septal artery
Procedure: Positive inotropic effects of the novel carbostyril derivatives of the present invention were tested according to a method described by M. Endoh and K. Hashimoto, in "American Journal of Physiology", Vol. 218, No. 5, May, 1970, pages 1459-1463 as follows:
Adult bastard dogs of both sexes, weighing 8-12 kg, were anesthetized with pentobarbital-Na at a rate of 30 mg/kg by intraveneous administration. After another intraveneous administration of sodium heparin, 1,000 μ/kg, the test dog was sacrificed by blood letting. The heart of the dog was excised and immediately plunged into Locke's solution, then the arterial papillary muscle was excised out with interventicular septum. The septal artery was carefully isolated and cannulated with a polyethylene cannula and was ligated with thread. Septal arteries those of connected to other than the arterial papillary muscle were ligated with thread. Next, the donor adult bastard dogs, weighing 18-27 kg, were anesthetized with pentabarbital-Na (30 mg/kg, intraveneous injection), and further treated with intravenous administration of sodium heparin (1,000 μ/kg). The arterial papillary muscle was perfused through the septal artery being cannulated with the polyethylene cannula with the blood conducted from the carotid artery of the donor dog by aid of Peristaric pump. The perfusion pressure was maintained at 100 mmHg constantly. Then the muscle was electrically stimulated by an electronic stimulator through bipolar electrodes in contact with the interventicular septum. The strength of stimulation was 2 X (the minimum value for appearing the action), frequency 2 Hz, pulse duration 2 msec.
The isometric contraction generated was measured through a force-displacement transducer. The amount of blood flow in the coronary arteries was measured by determining the amount of the blood flow conducted to the septal artery by electromagnetic flow meter. All the data were recorded on an ink-writing recorder.
A solution containing a compound to be tested was injected into the septal artery through the rubber tube connected close to the shunk of the polyethylene cannula, in an amount of 10-30 μl.
The results obtained is shown in Table 4, in which the increasement (%) of contraction is indicated as the ratio of the contractions before and after the administration (injection) of the solution containing the test compound.

[2] = tested on: bastard dog; assay: Increasing effect of cerebral blood flow; assay type: in vivo; conditions: profunda femoris vein
Procedure: Thus, a bastard dog (male, 12-20 kg of body weight) was fixed in a prone (position) and was anesthetized with 20 mg/kg of pentobarbital sodium and made forced breathing to kept the frequency of respiration at 20 times/minutes. Then, the skull was bared and the surface bone was removed to expose the venous sinus by using grinder and the venous blood was took out from the venas which was cannulizated. The amount of venous blood flow was measured by using an electromagnetic blood flow meter and next measured by using drop-counter by measuring the number of drops of blood per 10 seconds.
The increasing effect of cerebral blood flow was calculated by comparing the number of blood drops in 30 seconds at the peak of increasement shown before and after the administration of compound to be tested. The each of compounds to be tested was dissolved in dimethylformamide and diluted with physiological saline solution and administered through a cannule being inserted into the profunda femoris vein.

[3] = tested on: Gold blatt type renoprival hypertension rats (RHR); assay: Hypotensive effect, Tail-cuff method, RHR; assay type: in vivo, rat; conditions: 30 mg/kg oral, mean value ± standard deviation
Procedure: (§1) Hypotensive effect of the compounds were measured by determining the maximum blood pressure of the test animals according to a procedure of Tail-cuff method.
(§2) Test animals used were the following two types.
(1) Gold blatt type renoprival hypertension rats (RHR)
Wistar strain male rats having, 160-180 g of body weight, were anesthetized with ether and the left-side renal artery was pluged with a silver clip having 0.2 mm inside diameter, while the right-side renal artery was kept as it was without operation. Four (4) weeks after the operation, rats having the maximum blood pressure over 150 mmHg were selected and used as test animals which were abstained from food for overnight.
(§3) Each of compounds to be tested were administered orally and the blood pressure was measured before the administration and 1, 2, 4, 6 and 8 hours after the administration. The blood pressure was measured by using Recorder (Rectihoriz type 8S, San-ei Instrument) and Electrosthygmomanometer PE-300 (Macro Bio-systems, Houston, Tex.).

[4] = tested on: Deoxycorticosteroneacetate (DOCA)/saline hypertension rats (DHR); assay: Hypotensive effect, Tail-cuff method, DHR; assay type: in vivo, rat; conditions: 30 mg/kg oral, mean value ± standard deviation
Procedure: as §1, §2
(2) Deoxycorticosteroneacetate (DOCA)/saline hypertension rats (DHR)
Wistar strain male rats having 150-170 g of body weight, were anesthetized with ether and the left-side kidney was enucleated. One (1) week after the operation, 10 mg/kg of DOCA was injected subcutaneously once a week and 1% NaCl aqueous solution was given as drinking water. Five (5) weeks after the operation, rats having the maximum blood pressure over 150 mmHg were selected and used as test animals which were abstained from food for overnight.
as §3

Row | Substance | Increasing of inotropic ([1]; dosage 10 n mol) | Increasing of inotropic ([1]; dosage 100 n mol) | Increasing effect of cerebral blood flow ([2]; dosage 300 μg/kg) | Increasing of inotropic ([1]; dosage 30 n mol) | Maximum blood pressure after the administration (difference) ([3]; 1 hour) | Maximum blood pressure after the administration (difference) ([3]; 2 hours) | Maximum blood pressure after the administration (difference) ([3]; 4 hours) | Maximum blood pressure after the administration (difference) ([4]; 1 hour) | Maximum blood pressure after the administration (difference) ([4]; 2 hours) | Maximum blood pressure after the administration (difference) ([4]; 4 hours) | Maximum blood pressure after the administration (difference) ([4]; 6 hours) | Maximum blood pressure after the administration (difference) ([3]; 6 hours) | Maximum blood pressure after the administration (difference) ([3]; 8 hours) | Increasing effect of cerebral blood flow ([2]; dosage 100 μg/kg)
1 | 6-{3-[N-(2-Hydroxybutyl)-N-cyclohexylaminocarbonyl]propoxy}-3,4-dihydrocarbostyril [Example 4] | 10% | 62.5% | 64.2% | – | – | – | – | – | – | – | – | – | – | –
2 | 6-{3-[N-(2-hydroxyethyl)-N-cyclohexylaminocarbonyl]propoxy}-3,4-dihydrocarbostyril [Example 2] | 38.9% | – | – | 94.3% | -4.8 ± 6.4 mmHg | -4.8 ± 3.7 mmHg | -3.2 ± 4.0 mmHg | -63.0 ± 9.1 mmHg | -30.4 ± 9.9 mmHg | -42.8 ± 5.5 mmHg | -24.1 ± 6.8 mmHg | – | – | –
3 | 7-{3-[N-(3-Hydroxypropyl)-N-cyclohexylaminocarbonyl]propoxy}-3,4-dihydrocarbostyril [Example 17] | – | – | – | – | -25.5 ± 7.0 mmHg | -23.3 ± 9.6 mmHg | -27.0 ± 14.1 mmHg | -2.5 ± 4.0 mmHg | -8.7 ± 3.3 mmHg | -9.3 ± 8.6 mmHg | – | -33.7 ± 10.2 mmHg | -29.8 ± 9.7 mmHg | 34.4%
4 | 6-{5-[N-(2-Hydroxybutyl)-N-cyclohexylaminocarbonyl]pentyloxy}-3,4-dihydrocarbostyril [Example 16] | – | – | – | – | – | – | – | -20.2 ± 8.0 mmHg | -21.2 ± 9.7 mmHg | -16.2 ± 6.8 mmHg | -6.5 ± 8.5 mmHg | – | – | 63.2%
5 | 6-{4-[N-(2-Hydroxypropyl)-N-cyclohexylaminocarbonyl]butoxy}-3,4-dihydrocarbostyril [Example 8] | – | 89.4% | – | 38.7% | – | – | – | – | – | – | – | – | – | –
6 | 6-{4-[N-(2-Hydroxyethyl)-N-cyclohexylaminocarbonyl]butoxy}-3,4-dihydrocarbostyril [Example 9] | – | – | – | – | -10.1 ± 6.2 mmHg | -11.6 ± 9.6 mmHg | -14.2 ± 5.0 mmHg | -51.2 ± 14.0 mmHg | -44.6 ± 14.6 mmHg | -42.4 ± 13.9 mmHg | -34.0 ± 10.2 mmHg | -8.0 ± 2.6 mmHg | – | 85.3%
